Literature values as cited in patent publication US8623415B2, “Method for producing biologically ingestible microparticles, biologically ingestible microparticles, and dispersion and pharmaceutical composition containing the same” (M. Technique Co., Ltd., priority 2007, dated 2014).
Where two headings read alike, the source gives them in different places.

Assays:
[1] = dissolved in an aqueous solution of pH 6 or higher

| biological availability (BA) (commercial product (average particle diameter 10 μm) administered to a dog as a suspension) [%] | biological availability (BA) (nano-suspension, average particle diameter 169 nm, dog) [%] | stability in aqueous solution [1] | SMILES |
| --- | --- | --- | --- |
| 5.1 | 82.3 | – | C#C[C@]1(O)CC[C@H]2[C@@H]3CCC4=Cc5oncc5C[C@]4(C)[C@H]3CC[C@@]21C [danazol, 17-α-pregno-2,4-diene-20-ino-[2,3-d]-isoxazol-17-ol (danazol)] |
| – | – | hydrolyzed | O=C(O)c1cc(O)c2c3nc4ccccc4oc-3cc(=O)c2n1 [pirenoxine] |
